This passage reports Ki and inhibition results from ChEMBL document CHEMBL3751661, “The influence of 5-HT(2A) activity on a 5-HT(2C) specific in vivo assay used for early identification of multiple acting SERT and 5-HT(2C) receptor ligands” (Bioorg Med Chem Lett, 2016).

pKi: −log10 of the molar value.

Chain of Sodium-dependent serotonin transporter (Rattus norvegicus) (P31652 whole entry): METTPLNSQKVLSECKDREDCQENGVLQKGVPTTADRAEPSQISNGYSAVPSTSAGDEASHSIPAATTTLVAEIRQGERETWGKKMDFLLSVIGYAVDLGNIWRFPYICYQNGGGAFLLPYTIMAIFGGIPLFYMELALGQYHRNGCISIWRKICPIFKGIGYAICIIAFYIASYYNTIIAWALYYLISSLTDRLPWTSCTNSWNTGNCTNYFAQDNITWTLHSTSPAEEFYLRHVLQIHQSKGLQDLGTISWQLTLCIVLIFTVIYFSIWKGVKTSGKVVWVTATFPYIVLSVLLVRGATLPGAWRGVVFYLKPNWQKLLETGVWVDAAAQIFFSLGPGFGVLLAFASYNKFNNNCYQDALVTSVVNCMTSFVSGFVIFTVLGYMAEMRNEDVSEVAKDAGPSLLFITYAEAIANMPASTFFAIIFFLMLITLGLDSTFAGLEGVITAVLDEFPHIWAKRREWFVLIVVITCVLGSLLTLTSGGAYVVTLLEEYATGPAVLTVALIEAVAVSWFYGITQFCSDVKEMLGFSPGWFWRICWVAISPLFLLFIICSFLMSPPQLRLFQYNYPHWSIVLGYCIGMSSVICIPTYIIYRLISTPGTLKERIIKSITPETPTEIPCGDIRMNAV

The target in the first test is Sodium-dependent serotonin transporter (Rattus norvegicus, UniProt P31652). In words: Displacement of [3H]citalopram from SERT in Sprague-Dawley rat whole brain membranes after 1 hr by liquid scintillation spectrometry.
Chain of Sodium-dependent serotonin transporter (Rattus norvegicus, UniProt P31652) (P31652 whole entry): as above
Conditions: not given
In kind it is tissue-based, Membrane. Background: In a radioligand displacement assay an active substance lowers the binding of a labelled ligand.
In turn, `COc1ccc(NC(=O)Nc2ccc(S(=O)(=O)N(CCN(C)C)Cc3ccccc3)cc2)cc1Cl` showed a pKi of 7.03.
As to `Cc1ccc(NC(=O)Nc2ccc(S(=O)(=O)N(CCN(C)C)Cc3ccccc3)cc2)cc1Cl`, the pKi is 6.68.
The same measure, in the same setting: with `CN(C)CCN(Cc1ccccc1)S(=O)(=O)c1ccc(C(=O)N2CCN(c3cccc(Cl)c3)CC2)cc1` the figure was 6.96; with `CCn1ccc2cc(NC(=O)Nc3ccc(S(=O)(=O)N(CCN(C)C)Cc4ccccc4)cc3)ccc21`, 7.18; with `CN(C)CCN(Cc1ccccc1)S(=O)(=O)c1ccc(NC(=O)N2CCN(c3cccc(Cl)c3)CC2)cc1`, 7.43.

The target of another test is Sodium-dependent serotonin transporter (Homo sapiens, UniProt P31645). In words: Binding affinity to SERT (unknown origin).
Chain of Sodium-dependent serotonin transporter (Homo sapiens, UniProt P31645) (P31645 whole entry): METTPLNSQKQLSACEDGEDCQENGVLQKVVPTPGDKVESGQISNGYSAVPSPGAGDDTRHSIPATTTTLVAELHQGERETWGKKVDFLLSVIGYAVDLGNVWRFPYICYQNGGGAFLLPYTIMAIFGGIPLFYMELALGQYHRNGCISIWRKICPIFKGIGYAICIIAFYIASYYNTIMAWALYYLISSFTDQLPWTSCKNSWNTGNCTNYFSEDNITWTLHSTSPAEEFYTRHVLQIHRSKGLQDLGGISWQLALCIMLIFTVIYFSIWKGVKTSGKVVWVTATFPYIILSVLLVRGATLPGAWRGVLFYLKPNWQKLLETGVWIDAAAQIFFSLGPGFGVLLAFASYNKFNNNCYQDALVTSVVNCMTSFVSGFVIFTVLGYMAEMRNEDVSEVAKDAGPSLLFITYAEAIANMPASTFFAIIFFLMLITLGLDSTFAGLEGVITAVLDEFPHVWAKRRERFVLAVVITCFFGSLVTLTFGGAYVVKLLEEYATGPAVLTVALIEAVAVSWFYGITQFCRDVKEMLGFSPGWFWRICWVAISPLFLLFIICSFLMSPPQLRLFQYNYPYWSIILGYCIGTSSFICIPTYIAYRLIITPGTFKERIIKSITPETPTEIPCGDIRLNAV
Conditions: not given
With `Clc1cccc(N2CCNCC2)c1` [CHLOROPHENYLPIPERAZINE], the pKi is 6.57.

A further test addresses Sodium-dependent serotonin transporter (Rattus norvegicus) (UniProt P31652). In words: Displacement of [3H]citalopram from SERT in Sprague-Dawley rat whole brain membranes at 1 uM after 1 hr by liquid scintillation spectrometry. In kind it is tissue-based. The following applies: Membrane.
`Cc1cc2c(cc1Cl)N(C(=O)Nc1ccc(S(=O)(=O)N(CCN(C)C)Cc3ccccc3)cc1)CC2` came in with an inhibition of 11%.

A further test has as its target T1, 5-hydroxytryptamine receptor 2C (Rattus norvegicus, UniProt P08909).
T1 sequence (P08909 whole entry): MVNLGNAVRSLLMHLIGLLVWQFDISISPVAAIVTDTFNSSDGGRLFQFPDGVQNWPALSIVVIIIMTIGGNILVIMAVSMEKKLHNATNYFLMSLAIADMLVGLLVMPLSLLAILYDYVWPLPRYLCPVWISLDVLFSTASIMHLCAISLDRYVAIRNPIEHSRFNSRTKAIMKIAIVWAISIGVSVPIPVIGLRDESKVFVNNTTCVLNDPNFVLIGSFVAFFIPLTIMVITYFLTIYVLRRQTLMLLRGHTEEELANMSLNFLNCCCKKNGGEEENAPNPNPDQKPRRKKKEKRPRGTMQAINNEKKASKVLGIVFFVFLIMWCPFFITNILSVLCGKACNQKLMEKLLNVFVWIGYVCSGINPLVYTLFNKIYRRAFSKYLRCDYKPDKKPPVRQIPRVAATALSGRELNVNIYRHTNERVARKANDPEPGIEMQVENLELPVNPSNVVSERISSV
In words: Displacement of [3H]mesulergine from 5HT2C in Sprague-Dawley rat whole brain membranes after 1 hr by liquid scintillation spectrometry. In kind it is tissue-based, Membrane.
Conditions: not given
As to `COc1ccc(NC(=O)Nc2ccc(S(=O)(=O)N(CCN(C)C)Cc3ccccc3)cc2)cc1Cl`, the pKi was 7.79.
The same measure, in the same setting: under `Cc1ccc(NC(=O)Nc2ccc(S(=O)(=O)N(CCN(C)C)Cc3ccccc3)cc2)cc1Cl` stands 8.35.
Still for that read-out and setting: with `Cc1cc2c(cc1Cl)N(C(=O)Nc1ccc(S(=O)(=O)N(CCN(C)C)Cc3ccccc3)cc1)CC2` the figure was 7.36; with `Cc1ccc(NC(=O)Nc2ccc(OC(CCN(C)C)c3ccccc3)cc2)cc1Cl` (centres undefined), 8.52; with `CN(C)CCN(Cc1ccccc1)S(=O)(=O)c1ccc(C(=O)N2CCN(c3cccc(Cl)c3)CC2)cc1`, 6.32.
The same measure, in the same setting: with `CCn1ccc2cc(NC(=O)Nc3ccc(S(=O)(=O)N(CCN(C)C)Cc4ccccc4)cc3)ccc21` the figure was 7.58; with `CN(C)CCN(Cc1ccccc1)S(=O)(=O)c1ccc(NC(=O)N2CCN(c3cccc(Cl)c3)CC2)cc1`, 7.02.

Broadly, the pKi is the negative decadic logarithm of the Ki, by convention in mol/L. Higher therefore signals a low Ki. A word on the inhibition: it is the share of the control response that was lost under treatment. Read a high inhibition as a response far below the control.
